{
  "source": "patent US11213514B2",
  "about": "“Alpha-1-adrenergic receptor agonist therapy” (The Regents of the University of California, priority 2016, dated 2022)",
  "system": "ERK",
  "test": "ERK activation in neonatal rat ventricular myocytes (pERK/ERK Western blot)",
  "format": "cell-based",
  "details": "NRVMs, norepinephrine 1 μM in the presence of propranolol 1 μM",
  "text": "FIGS. 4A-4F. […] The reaction was stopped immediately and lysates were blotted for total and phospho-ERK (pERK). FIG. 4A. Representative Western blot. FIG. 4B. […] FIG. 4C. Summary of pERK/ERK for experiments using 5 different NRVM isolations. The average pERK/ERK ratio for each experiment was derived from at least 2 individual wells and normalized to the pERK/ERK ratio for vehicle treated NRVMs. FIG. 4D and FIG. 4E. […] Heart lysates were blotted for pERK and ERK. Results were compared using one way ANOVA with Tukey post-test. FIG. 4F.\nDabuzalgron protects neonatal rat ventricular myocytes from cell death due to doxorubicin. […] (FIG. 4C).\nFemale Sprague-Dawley rats were from Charles River. NRVMs were isolated as previously described.7 Briefly, hearts from 1-2 day old rat pups were minced, digested serially in collagenase (Worthington)-containing solution, filtered, then pre-plated to exclude non-myocyotes. NRVMs were then plated on laminin-coated dishes in DMEM with 5% fetal bovine serum (Sigma F2442) for 24 hours. Experiments were carried out after 36-96 hours of serum starvation in the presence of insulin, transferrin, and BrdU. […]\nAll results are presented as mean±SEM. […] EC50 for ERK activation was calculated using sigmoidal dose-response analysis (Prism).",
  "data": [
    {"smiles": "NC[C@H](O)c1ccc(O)c(O)c1", "note": "[norepinephrine]", "values": [
      {"measurement": "increase of pERK/ERK ratio", "result": "roughly 1.5 fold"}
    ]}
  ]
}
